Experiments:
[1] = test system: Escherichia coli 0-111; assay: Therapeutic effects in infected mice; format: in vivo, Male mice ICR/SLC; conditions: Escherichia coli, 0111, sc, 168 h
Experimental: The preliminary therapeutic effects of some cephalosporin derivatives of this invention as determined in infected mice were as follows.
Determination of therapeutic effects in infected mice
Test animals: Male mice ICR/SLC
Each compound was administered to a group of 5 animals.
Route of infection: Intraperitoneally infected with Escherichia coli 0-111
Period of observation: 7 days.
Method of administration:
One mg of each test compound was dissolved in 100 ml of sterile physiological saline and a dilution series of the same solution was prepared. These solutions were respectively injected subcutaneously into mice immediately after infection, in a single dose of 0.2 ml each.

[2] = test system: P. vulgaris GN 4413; assay: Minimal inhibitory concentration (M.I.C.), agar dilution method; format: cell-based, Proteus vulgaris; conditions: TSA, inoculum 10^7 /ml
Excerpt: (§1) (a) Determination of minimal inhibitory concentrations (Tables 1 to 8):
(§2) Procedure: agar dilution method

[3] = test system: P. vulgaris IFO 3988; assay: as above; format: cell-based, Proteus vulgaris; conditions: TSA, inoculum 10^7 /ml
Excerpt: as §1, §2

[4] = test system: K. pneumoniae DT; assay: as above; format: cell-based, Klebsiella pneumoniae; conditions: TSA, inoculum 10^7 /ml
Excerpt: as §1, §2

[5] = test system: K. pneumoniae GN 3835; assay: as above; format: cell-based, Klebsiella pneumoniae; conditions: TSA, inoculum 10^7 /ml
Excerpt: as §1, §2

[6] = test system: E. cloacae TN 1282; assay: as above; format: cell-based, Enterobacter cloacae; conditions: TSA, inoculum 10^7 /ml
Excerpt: as §1, §2

[7] = test system: S. aureus 1840; assay: as above; format: cell-based, Staphylococcus aureus; conditions: TSA, inoculum 10^7 /ml
Excerpt: as §1, §2

[8] = test system: S. aureus 209P; assay: as above; format: cell-based, Staphylococcus aureus; conditions: TSA, inoculum 10^7 /ml
Excerpt: as §1, §2

[9] = test system: E. coli NIHJ JC-2; assay: as above; format: cell-based, Escherichia coli; conditions: TSA, inoculum 10^7 /ml
Excerpt: as §1, §2

[10] = test system: E. coli T-7; assay: as above; format: cell-based, Escherichia coli; conditions: TSA, inoculum 10^7 /ml
Excerpt: as §1, §2

[11] = test system: P. rettgeri GN4733; assay: as above; format: cell-based, Proteus rettgeri; conditions: TSA, inoculum 10^7 /ml
Excerpt: as §1, §2

[12] = test system: P. rettgeri TN 338; assay: as above; format: cell-based, Proteus rettgeri; conditions: TSA, inoculum 10^7 /ml
Excerpt: as §1, §2

[13] = test system: S. marcescens TN 24; assay: as above; format: cell-based, Serratia marcescens; conditions: TSA, inoculum 10^7 /ml
Excerpt: as §1, §2

[14] = test system: S. marcescens IFO 12648; assay: as above; format: cell-based, Serratia marcescens; conditions: TSA, inoculum 10^7 /ml
Excerpt: as §1, §2

[15] = test system: C. freundii GN 1706; assay: as above; format: cell-based, Citrobacter freundii; conditions: TSA, inoculum 10^7 /ml
Excerpt: as §1, §2

[16] = test system: C. freundii GN 99; assay: as above; format: cell-based, Citrobacter freundii; conditions: TSA, inoculum 10^7 /ml
Excerpt: as §1, §2

[17] = test system: E. coli 0-111; assay: as above; format: cell-based, Escherichia coli; conditions: TSA, inoculum 10^7 /ml
How it was run: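 MIC against E. coli O-111 was determined by agar dilution.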

[18] = test system: P. morganii IFO 3168; assay: as above; format: cell-based, Proteus morganii; conditions: TSA, inoculum 10^7 /ml
Excerpt: as §1, §2

[19] = test system: P. mirabilis GN 4359; assay: as above; format: cell-based, Proteus mirabilis; conditions: TSA, inoculum 10^7 /ml
Excerpt: as §1, §2

Structure (SMILES) | ED50 [1] [mg/kg] | minimal inhibitory concentration (M.I.C.) [2] | minimal inhibitory concentration (M.I.C.) [3] | minimal inhibitory concentration (M.I.C.) [4] | minimal inhibitory concentration (M.I.C.) [5] | minimal inhibitory concentration (M.I.C.) [6] | minimal inhibitory concentration (M.I.C.) [7] | minimal inhibitory concentration (M.I.C.) [8] | minimal inhibitory concentration (M.I.C.) [9] | minimal inhibitory concentration (M.I.C.) [10] | minimal inhibitory concentration (M.I.C.) [11] | minimal inhibitory concentration (M.I.C.) [12] | minimal inhibitory concentration (M.I.C.) [13] | minimal inhibitory concentration (M.I.C.) [14] | minimal inhibitory concentration (M.I.C.) [15] | minimal inhibitory concentration (M.I.C.) [16] | minimal inhibitory concentration (M.I.C.) [17] | minimal inhibitory concentration (M.I.C.) [18] | minimal inhibitory concentration (M.I.C.) [19]
CNC(=O)O/N=C(\C(=O)NC1C(=O)N2C(C(=O)O)=C(COC(N)=O)CSC12)c1csc(=N)[nH]1 (stereo not drawn) [Example II - 3, sodium 7-[2-(2-imino-4-thiazolin-4-yl)-2-methylcarbamoyloximinoacetamido]-3-carbamoyloxymethyl-3-cephem-4-carboxylate (syn-isomer)] | 0.016 | 50 | 0.05 | 0.024 | 0.1 | 6.25 | 3.13 | 3.13 | 0.1 | 0.39 | 0.1 | ≤ 0.012 | 6.25 | 3.13 | 0.2 | 0.1 | 0.024 | 0.78 | 0.05
CNC(=O)O/N=C(\C(=O)NC1C(=O)N2C(C(=O)O)=C(CSc3nnnn3C)CSC12)c1csc(=N)[nH]1 (stereo not drawn) [Example II - 4, sodium 7-[2-(2-imino-4-thiazolin-4-yl)-2-methylcarbamoyloximinoacetamido]-3-(1-methyl-1H-tetrazol-5-yl)thiomethyl-3-cephem-4-carboxylate (syn-isomer)] | 0.025 | 12.5 | 0.1 | 0.05 | 0.39 | 1.56 | 1.56 | 1.56 | 0.2 | 1.56 | 0.1 | ≤ 0.012 | 0.78 | 1.56 | 0.39 | 0.1 | 0.024 | 0.1 | 0.1
CCCCNC(=O)O/N=C(\C(=O)NC1C(=O)N2C(C(=O)O)=C(COC(N)=O)CSC12)c1csc(=N)[nH]1 (stereo not drawn) [Example II - 21, sodium 7-[2-(2-imino-4-thiazolin-4-yl)-2-butylcarbamoyloximinoacetamido]-3-carbamoyloxymethyl-3-cephem-4-carboxylate (syn-isomer)] | 0.1 | 50 | 0.39 | 0.1 | 0.39 | 25 | 3.13 | 1.56 | 0.39 | 3.13 | 0.39 | ≤ 0.012 | 25 | 6.25 | 0.78 | 0.39 | 0.05 | 1.56 | 0.2
O=C(Cc1cccs1)N[C@@H]1C(=O)N2C(C(=O)[O-])=C(C[n+]3ccccc3)CS[C@H]12 [Cephaloridine, 7-(2-thienylacetamido)-3-(1-pyridyl)methyl-3-cephem-4-carboxylic acid betaine, reference compound] | 2 | > 100 | 6.25 | 1.56 | 12.5 | > 100 | 0.39 | 0.05 | 3.13 | > 100 | > 100 | 1.56 | > 100 | > 100 | > 100 | 50 | 1.56 | > 100 | 6.25

Reference: US4200575A, “7[(2-Thiazolyl)-2-(oxoimino)acetamido]cephalosporin derivatives” (Takeda Chemical Industries, Ltd., priority 1977, dated 1980)
